Assay results from ChEMBL document CHEMBL4765298, “Substituted oxindol-3-ylidenes as AMP-activated protein kinase (AMPK) inhibitors” (Eur J Med Chem, 2020).
Blank lines part the entries; values can stand above or below the compound they belong to. Calls of active or inactive are those of the source. The calls are words filed in the database; no cut-off is given here.

Tests used:
[1] = biological target: Tyrosine-protein kinase JAK1 (Homo sapiens) (UniProt P23458); test: Inhibition of wild-type human partial length JAK1 JH2 pseudokinase domain (R537 to D855 residues) expressed in mammalian expression system at 100 nM by Kinomescan method relative to control
[2] = biological target: Macrophage colony-stimulating factor 1 receptor (Homo sapiens) (UniProt P07333); test: Inhibition of wild-type human partial length CSF1R (I564 to S939 residues) expressed in bacterial expression system at 100 nM by Kinomescan method relative to control
K562 [3] = test: Inhibition of AMPK in human K562 cells assessed as p-ACC (Ser79) level at 3.125 to […] in glucose free medium and in presence of 2-Deoxy-D-glucose measured after 3 hrs by ELISA; type: cell-based; conditions: dose 3.125-12.5 µM
[4] = biological target: Macrophage colony-stimulating factor 1 receptor (Homo sapiens) (UniProt P07333); test: Inhibition of wild-type human partial length autoinhibited CSF1R (Y538 to S939 residues) expressed in mammalian expression system at 100 nM by Kinomescan method relative to control
[5] = biological target: Tyrosine-protein kinase BTK (Homo sapiens) (UniProt Q06187); test: Inhibition of wild-type human full length BTK (M1 to S659 residues) expressed in mammalian expression system at 100 nM by Kinomescan method relative to control
[6] = biological target: Vascular endothelial growth factor receptor 2 (Homo sapiens) (UniProt P35968); conditions: dose 100.0 nM
Description: Inhibition of wild-type human partial length VEGFR2 (R787 to P1253 residues) expressed in mammalian expression system at 100 nM by Kinomescan method relative to control

[7] = biological target: 5'-AMP-activated protein kinase catalytic subunit alpha-2 (Homo sapiens) (UniProt P54646); test: Inhibition of wild-type human partial length AMPK alpha2 (M1 to E306 residues) expressed in bacterial expression system at 100 nM by Kinomescan method relative to control
[8] = biological target: 5'-AMP-activated protein kinase catalytic subunit alpha-1 (Homo sapiens) (UniProt Q13131); test: Inhibition of wild-type human partial length AMPK alpha1 (M1 to E306 residues) expressed in bacterial expression system at 100 nM by Kinomescan method relative to control
[9] = biological target: Mast/stem cell growth factor receptor Kit (Homo sapiens) (UniProt P10721); test: Inhibition of wild-type human partial length autoinhibited KIT (Y545 to D952 residues) expressed in mammalian expression system at 100 nM by Kinomescan method relative to control
K562 [10] = test: Inhibition of AMPK in human K562 cells assessed as p-ACC (Ser79) level at 5 uM in glucose free medium and in presence of 2-Deoxy-D-glucose measured after 3 hrs by ELISA relative to control; type: cell-based
[11] = biological target: 5'-AMP-activated protein kinase catalytic subunit alpha-1 (Homo sapiens) (UniProt Q13131); test: Inhibition of recombinant human His6-tagged AMPK alpha1 at 20 uM using ULight CRBtide as substrate incubated for 1 hr followed by substrate addition and measured after 1 hr by TR-FRET assay relative to control; conditions: time 2.0 hrs
K562 [12] = test: Cytotoxicity against human K562 cells assessed as reduction in cell viability incubated for 24 hrs by cell-titer glo assay; type: cell-based; conditions: K562, 24 h
K562 [13] = test: Cytotoxicity against human K562 cells assessed as reduction in cell viability incubated for 48 hrs by celltox-green assay; type: cell-based; conditions: K562, 48 h
K562 [14] = test: Cytotoxicity against human K562 cells assessed as reduction in cell viability incubated for 72 hrs by MTS assay; type: cell-based; conditions: K562, 72 h
[15] = Cytotoxicity against human K562 cells assessed as reduction in cell viability at 50 uM incubated for 24 hrs by celltox-green assay relative to control; type: cell-based; conditions: read-out: INH
K562 [16] = test: Cytotoxicity against human K562 cells assessed as reduction in cell viability incubated for 24 hrs by celltox-green assay; type: cell-based; conditions: K562, 24 h
[17] = Cytotoxicity against human K562 cells assessed as reduction in cell viability at 1.56 uM incubated for 72 hrs by MTS assay relative to control; type: cell-based; conditions: read-out: INH
[18] = biological target: 5'-AMP-activated protein kinase catalytic subunit alpha-2 (Homo sapiens) (UniProt P54646); test: Inhibition of recombinant human His6-tagged AMPK alpha2 at 10 uM using ULight CRBtide as substrate incubated for 1 hr followed by substrate addition and measured after 1 hr by TR-FRET assay relative to control; conditions: time 2.0 hrs
[19] = Inhibition of recombinant human GST-tagged AMPK alpha1/beta1/gamma1 expressed in African green monkey COS7 cells assessed as reduction in AMPK beta 1 S108 phosphorylation incubated for 10 mins by [gamma 32-P]-ATP based radiometric scintillation counting analysis; type: cell-based
[20] = biological target: Vascular endothelial growth factor receptor 1 (Homo sapiens) (UniProt P17948); test: Inhibition of wild-type human partial length FLT1 (R781 to F1239 residues) expressed in bacterial expression system at 100 nM by Kinomescan method relative to control
K562 [21] = test: Inhibition of AMPK in human K562 cells assessed as p-ACC (Ser79) level at 50 uM in glucose free medium and in presence of 2-Deoxy-D-glucose measured after 3 hrs by ELISA; type: cell-based
[22] = Cytotoxicity against human K562 cells assessed as reduction in cell viability at 50 uM incubated for 72 hrs by MTS assay relative to control; type: cell-based; conditions: read-out: INH
[23] = Cytotoxicity against human K562 cells assessed as reduction in cell viability at 50 uM incubated for 24 hrs by cell-titer glo assay relative to control; type: cell-based; conditions: read-out: INH
[24] = Cytotoxicity against human K562 cells assessed as reduction in cell viability at 50 uM incubated for 48 hrs by celltox-green assay relative to control; type: cell-based; conditions: read-out: INH

Chain of Macrophage colony-stimulating factor 1 receptor (Homo sapiens) (P07333 whole entry, the tested form may be a part): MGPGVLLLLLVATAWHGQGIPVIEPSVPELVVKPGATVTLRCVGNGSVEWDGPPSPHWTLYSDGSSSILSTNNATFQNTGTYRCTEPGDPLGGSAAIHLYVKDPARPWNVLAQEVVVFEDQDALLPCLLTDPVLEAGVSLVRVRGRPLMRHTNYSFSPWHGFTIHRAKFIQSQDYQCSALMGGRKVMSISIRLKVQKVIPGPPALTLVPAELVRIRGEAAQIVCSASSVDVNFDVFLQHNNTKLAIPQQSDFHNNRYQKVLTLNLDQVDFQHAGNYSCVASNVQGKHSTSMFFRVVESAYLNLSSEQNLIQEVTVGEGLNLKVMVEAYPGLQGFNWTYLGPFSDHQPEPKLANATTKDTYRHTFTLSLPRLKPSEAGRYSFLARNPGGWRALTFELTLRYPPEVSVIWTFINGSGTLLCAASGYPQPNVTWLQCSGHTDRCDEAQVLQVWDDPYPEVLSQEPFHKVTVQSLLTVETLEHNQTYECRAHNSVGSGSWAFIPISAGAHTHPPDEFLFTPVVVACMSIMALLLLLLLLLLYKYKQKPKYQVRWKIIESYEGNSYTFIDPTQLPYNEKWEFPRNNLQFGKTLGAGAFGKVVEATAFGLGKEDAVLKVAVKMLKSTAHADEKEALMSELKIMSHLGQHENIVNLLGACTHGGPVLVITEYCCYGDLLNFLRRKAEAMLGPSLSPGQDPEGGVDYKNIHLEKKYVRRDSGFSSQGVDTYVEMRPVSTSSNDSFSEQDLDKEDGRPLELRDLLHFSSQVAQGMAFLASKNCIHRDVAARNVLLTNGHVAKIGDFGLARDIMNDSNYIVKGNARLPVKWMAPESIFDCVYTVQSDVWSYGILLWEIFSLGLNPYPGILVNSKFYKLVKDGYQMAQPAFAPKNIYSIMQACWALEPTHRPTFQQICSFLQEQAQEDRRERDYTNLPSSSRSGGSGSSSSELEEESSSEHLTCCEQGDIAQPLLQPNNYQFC
Chain of 5'-AMP-activated protein kinase catalytic subunit alpha-1 (Homo sapiens) (Q13131 whole entry, looked up, the tested form may be a part): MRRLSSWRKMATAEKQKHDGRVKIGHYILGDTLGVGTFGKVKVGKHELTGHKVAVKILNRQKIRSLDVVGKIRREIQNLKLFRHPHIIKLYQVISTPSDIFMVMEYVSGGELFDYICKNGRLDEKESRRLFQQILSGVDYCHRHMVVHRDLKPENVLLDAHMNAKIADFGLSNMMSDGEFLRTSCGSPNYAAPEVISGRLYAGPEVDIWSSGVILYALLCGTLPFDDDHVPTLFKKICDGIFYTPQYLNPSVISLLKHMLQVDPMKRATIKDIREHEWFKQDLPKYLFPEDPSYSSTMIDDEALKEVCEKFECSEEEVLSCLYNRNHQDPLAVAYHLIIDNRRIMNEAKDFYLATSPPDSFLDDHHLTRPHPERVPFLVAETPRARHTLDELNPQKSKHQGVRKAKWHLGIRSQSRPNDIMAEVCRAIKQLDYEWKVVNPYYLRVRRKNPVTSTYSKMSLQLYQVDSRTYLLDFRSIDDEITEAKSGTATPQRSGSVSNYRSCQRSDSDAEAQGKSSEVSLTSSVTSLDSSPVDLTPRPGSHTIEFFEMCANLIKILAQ
Chain of 5'-AMP-activated protein kinase catalytic subunit alpha-2 (Homo sapiens) (P54646 whole entry, looked up, the tested form may be a part): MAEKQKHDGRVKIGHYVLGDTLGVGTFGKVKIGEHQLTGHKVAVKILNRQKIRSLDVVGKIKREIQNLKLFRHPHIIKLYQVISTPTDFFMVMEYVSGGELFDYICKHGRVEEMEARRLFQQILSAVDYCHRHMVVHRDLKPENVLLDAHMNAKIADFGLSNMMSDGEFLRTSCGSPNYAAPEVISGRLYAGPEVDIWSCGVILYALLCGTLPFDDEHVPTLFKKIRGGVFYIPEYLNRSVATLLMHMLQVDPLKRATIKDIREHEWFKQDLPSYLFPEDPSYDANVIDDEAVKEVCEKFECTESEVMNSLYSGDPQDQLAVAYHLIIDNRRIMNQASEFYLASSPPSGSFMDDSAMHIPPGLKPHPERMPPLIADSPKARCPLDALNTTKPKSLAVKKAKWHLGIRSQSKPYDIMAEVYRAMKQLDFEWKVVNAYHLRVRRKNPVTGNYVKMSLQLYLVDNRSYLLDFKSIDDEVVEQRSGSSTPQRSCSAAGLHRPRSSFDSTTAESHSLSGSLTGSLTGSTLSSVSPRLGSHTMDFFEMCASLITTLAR
Chain of Vascular endothelial growth factor receptor 2 (Homo sapiens) (P35968 whole entry, the tested form may be a part): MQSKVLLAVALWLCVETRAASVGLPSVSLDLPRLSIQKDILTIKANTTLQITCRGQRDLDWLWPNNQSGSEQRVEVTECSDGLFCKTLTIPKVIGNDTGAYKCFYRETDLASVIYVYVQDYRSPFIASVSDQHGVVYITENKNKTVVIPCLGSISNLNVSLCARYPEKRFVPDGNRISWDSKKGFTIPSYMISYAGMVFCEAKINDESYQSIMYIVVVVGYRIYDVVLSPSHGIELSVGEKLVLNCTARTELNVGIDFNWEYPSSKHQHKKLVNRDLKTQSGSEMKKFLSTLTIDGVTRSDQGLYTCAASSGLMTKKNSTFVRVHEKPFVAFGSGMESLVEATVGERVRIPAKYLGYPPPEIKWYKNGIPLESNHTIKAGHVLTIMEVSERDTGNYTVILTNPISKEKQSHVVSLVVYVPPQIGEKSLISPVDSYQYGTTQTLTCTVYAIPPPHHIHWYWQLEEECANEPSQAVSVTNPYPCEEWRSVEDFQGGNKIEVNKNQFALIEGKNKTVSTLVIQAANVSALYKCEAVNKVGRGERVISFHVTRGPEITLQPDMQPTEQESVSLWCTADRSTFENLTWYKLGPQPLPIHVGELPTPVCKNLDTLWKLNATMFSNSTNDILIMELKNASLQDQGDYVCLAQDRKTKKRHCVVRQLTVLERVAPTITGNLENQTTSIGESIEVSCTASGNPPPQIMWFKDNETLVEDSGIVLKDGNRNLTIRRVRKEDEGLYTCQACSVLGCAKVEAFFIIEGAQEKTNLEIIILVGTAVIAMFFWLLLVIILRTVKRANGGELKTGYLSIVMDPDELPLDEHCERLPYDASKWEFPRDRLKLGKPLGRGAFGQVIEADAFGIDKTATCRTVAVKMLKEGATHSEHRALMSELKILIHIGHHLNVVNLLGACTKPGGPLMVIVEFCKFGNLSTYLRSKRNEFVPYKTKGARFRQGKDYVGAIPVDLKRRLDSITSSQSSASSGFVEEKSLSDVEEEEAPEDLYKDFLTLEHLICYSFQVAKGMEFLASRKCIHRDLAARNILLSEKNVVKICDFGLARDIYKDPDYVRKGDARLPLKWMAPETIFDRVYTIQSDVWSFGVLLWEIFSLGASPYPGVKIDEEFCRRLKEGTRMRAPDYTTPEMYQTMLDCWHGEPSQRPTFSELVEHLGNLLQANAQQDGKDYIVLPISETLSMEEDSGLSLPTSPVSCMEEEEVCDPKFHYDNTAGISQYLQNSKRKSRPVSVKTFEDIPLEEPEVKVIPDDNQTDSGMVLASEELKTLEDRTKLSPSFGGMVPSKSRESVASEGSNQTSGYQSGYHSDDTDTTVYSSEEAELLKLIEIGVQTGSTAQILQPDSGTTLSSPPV
Chain of Tyrosine-protein kinase JAK1 (Homo sapiens) (P23458 whole entry, the tested form may be a part): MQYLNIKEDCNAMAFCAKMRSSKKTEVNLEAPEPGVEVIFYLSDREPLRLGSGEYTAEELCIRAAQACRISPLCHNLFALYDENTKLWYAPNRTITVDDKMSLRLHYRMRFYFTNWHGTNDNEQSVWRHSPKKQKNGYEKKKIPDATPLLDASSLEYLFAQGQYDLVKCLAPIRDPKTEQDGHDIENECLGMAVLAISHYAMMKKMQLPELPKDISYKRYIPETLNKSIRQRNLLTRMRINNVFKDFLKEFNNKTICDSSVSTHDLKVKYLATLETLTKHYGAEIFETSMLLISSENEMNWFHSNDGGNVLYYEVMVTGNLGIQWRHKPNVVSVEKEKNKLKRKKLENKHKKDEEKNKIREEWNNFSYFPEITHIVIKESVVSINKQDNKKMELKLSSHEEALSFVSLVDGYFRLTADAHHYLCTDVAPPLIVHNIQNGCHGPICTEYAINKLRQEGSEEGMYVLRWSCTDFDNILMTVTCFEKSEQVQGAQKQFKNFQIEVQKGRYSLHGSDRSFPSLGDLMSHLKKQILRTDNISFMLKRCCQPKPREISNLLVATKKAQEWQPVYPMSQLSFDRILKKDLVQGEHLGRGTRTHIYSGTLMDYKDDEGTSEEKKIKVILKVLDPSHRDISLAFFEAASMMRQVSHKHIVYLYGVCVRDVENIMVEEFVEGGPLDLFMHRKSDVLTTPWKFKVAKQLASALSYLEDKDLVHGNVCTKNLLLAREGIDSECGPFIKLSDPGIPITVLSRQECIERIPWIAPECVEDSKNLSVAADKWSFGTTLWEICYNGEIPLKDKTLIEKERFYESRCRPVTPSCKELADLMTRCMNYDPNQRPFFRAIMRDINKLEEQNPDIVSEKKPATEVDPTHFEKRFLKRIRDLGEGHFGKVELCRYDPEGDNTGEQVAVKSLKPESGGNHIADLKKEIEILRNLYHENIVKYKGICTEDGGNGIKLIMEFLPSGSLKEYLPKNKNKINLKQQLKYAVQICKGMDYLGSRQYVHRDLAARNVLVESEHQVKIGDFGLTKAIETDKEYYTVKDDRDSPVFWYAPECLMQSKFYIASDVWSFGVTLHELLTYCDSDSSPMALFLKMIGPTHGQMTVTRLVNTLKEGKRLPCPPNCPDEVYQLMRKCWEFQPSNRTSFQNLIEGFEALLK

- inhibition [1]: 41%
- inhibition [2]: 18%
- inhibition [4]: 14%
- inhibition [5]: 0%
- inhibition [6]: 19%
- inhibition [7]: 64%
- inhibition [8]: 29%
- inhibition [9]: 0%
SMILES: CCN(CC)CCNC(=O)c1c(C)[nH]c(/C=C2\C(=O)Nc3ccc(CCC(N)=O)cc32)c1C
- inhibition (K562 [3]): Active
- inhibition (K562 [10]): 29.2%

- inhibition [11]: 89%
SMILES: CCN(CC)CCNC(=O)c1c(C)[nH]c(/C=C2\C(=O)Nc3cc(Br)ccc32)c1C

SMILES: CCN(CC)CCNC(=O)c1c(C)[nH]c(/C=C2\C(=O)Nc3ccc(CCN=[N+]=[N-])cc32)c1C
- EC50 (K562 [12]): 4.86 µM
- EC50 (K562 [13]): 4.81 µM
- EC50 (K562 [14]): 3.83 µM
- cytotoxicity at 24 h, 50 µM [15]: 90%

SMILES: CCN(CC)CCNC(=O)c1c(C)[nH]c(/C=C2\C(=O)Nc3cc(Cl)ccc32)c1C
- EC50 (K562 [16]): 5.24 µM
- EC50 (K562 [12]): 3.83 µM
- EC50 (K562 [13]): 4.18 µM
- cytotoxicity at 72 h, 1.56 µM [17]: 65%

- inhibition [11]: 78%
- inhibition [18]: 85%
SMILES: Cc1[nH]c(/C=C2\C(=O)Nc3ccc(F)cc32)c(C)c1C(=O)O

- inhibition [18]: 69%
SMILES: CCN(CC)CCNC(=O)c1c(C)[nH]c(/C=C2\C(=O)Nc3cc(C(C)C)ccc32)c1C

- IC50 [19]: 0.4 µM
SMILES: CNC(=O)c1ccccc1Oc1nc(Nc2cc(OC)c(OC)c(OC)c2)ncc1Br

- inhibition [18]: 88%
SMILES: CCN(CC)CCNC(=O)c1c(C)[nH]c(/C=C2\C(=O)Nc3cc(C)ccc32)c1C

SMILES: CCN(CC)CCNC(=O)c1c(C)[nH]c(/C=C2\C(=O)Nc3ccc(CCO)cc32)c1C
- inhibition [1]: 54%
- inhibition [20]: 42%
- inhibition [2]: 24%
- inhibition (K562 [21]): Active
- inhibition [6]: 55%
- inhibition [7]: 35%
- inhibition [8]: 49%
- inhibition [9]: 28%
- inhibition (K562 [10]): 23.7%

SMILES: CCN(CC)CCNC(=O)c1c(C)[nH]c(/C=C2\C(=O)Nc3ccc(C#N)cc32)c1C
- EC50 (K562 [12]): 19.9 µM
- EC50 (K562 [13]): 13.6 µM
- cytotoxicity at 72 h, 50 µM [22]: 98%
- cytotoxicity at 24 h, 50 µM [15]: 75%

SMILES: CCNCCNC(=O)c1c(C)[nH]c(/C=C2\C(=O)Nc3ccc(F)cc32)c1C
- EC50 (K562 [16]): 12.9 µM
- EC50 (K562 [12]): 15.5 µM
- EC50 (K562 [13]): 11.9 µM
- EC50 (K562 [14]): 13.6 µM

SMILES: CCN(CC)CCCNC(=O)c1c(C)[nH]c(/C=C2\C(=O)Nc3ccc(F)cc32)c1C
- EC50 (K562 [12]): 18 µM
- EC50 (K562 [14]): 13.5 µM
- cytotoxicity at 24 h, 50 µM [15]: 63%

SMILES: CCN(CC)CCNC(=O)c1c(C)[nH]c(/C=C2\C(=O)Nc3cc(F)ccc32)c1C
- EC50 (K562 [13]): 7.15 µM
- EC50 (K562 [14]): 2.85 µM
- cytotoxicity at 24 h, 50 µM [23]: 98%
- cytotoxicity at 24 h, 50 µM [15]: 61%

- inhibition [11]: 40%
- inhibition [18]: 17%
SMILES: CCN(CC)CCNC(=O)c1c(C)[nH]c(/C=C2\C(=O)N(C)c3ccc(F)cc32)c1C
- EC50 (K562 [16]): 12.1 µM
- EC50 (K562 [12]): 11.8 µM
- EC50 (K562 [14]): 6.79 µM

SMILES: CCN(CC)CCNC(=O)c1c(C)[nH]c(/C=C2\C(=O)Nc3ccc(CCNC(C)=O)cc32)c1C
- cytotoxicity at 48 h, 50 µM [24]: 42%
- cytotoxicity at 72 h, 50 µM [22]: 64%
- cytotoxicity at 24 h, 50 µM [23]: 98%
- cytotoxicity at 24 h, 50 µM [15]: 5%

- inhibition [11]: 30%
- inhibition [18]: 48%
SMILES: CCCNC(=O)c1c(C)[nH]c(/C=C2\C(=O)Nc3ccc(F)cc32)c1C

SMILES: Cc1[nH]c(/C=C2\C(=O)Nc3ccc(F)cc32)c(C)c1C(=O)NCCN(C)C
- EC50 (K562 [14]): 12.6 µM
- cytotoxicity at 24 h, 50 µM [23]: 98%
- cytotoxicity at 24 h, 50 µM [15]: 70%

SMILES: CCN(CC)CCNC(=O)c1c(C)[nH]c(/C=C2\C(=O)Nc3ccc(CCC#N)cc32)c1C
- EC50 (K562 [12]): 17.8 µM
- EC50 (K562 [13]): 13.6 µM
- EC50 (K562 [14]): 14.8 µM
- inhibition (K562 [10]): 34.1%
- cytotoxicity at 24 h, 50 µM [15]: 64%

- inhibition [11]: 70%
- inhibition [18]: 90%
SMILES: CCc1ccc2c(c1)NC(=O)/C2=C\c1[nH]c(C)c(C(=O)NCCN(CC)CC)c1C
